# According to ChEMBL document CHEMBL4477262, “Non-canonical modulators of nuclear receptors” (Bioorg Med Chem Lett, 2016):
# Peptide text beside a SMILES is read from it.
# Columns and labels:
# Estrogen receptor [1] = biological target: T1, Estrogen receptor (Homo sapiens, UniProt P03372); assay: Inhibition of full length human ERalpha expressed in human HEC1 cells in presence of estradiol by luciferase reporter gene assay; assay type: cell-based
# T1 sequence (P03372 whole entry): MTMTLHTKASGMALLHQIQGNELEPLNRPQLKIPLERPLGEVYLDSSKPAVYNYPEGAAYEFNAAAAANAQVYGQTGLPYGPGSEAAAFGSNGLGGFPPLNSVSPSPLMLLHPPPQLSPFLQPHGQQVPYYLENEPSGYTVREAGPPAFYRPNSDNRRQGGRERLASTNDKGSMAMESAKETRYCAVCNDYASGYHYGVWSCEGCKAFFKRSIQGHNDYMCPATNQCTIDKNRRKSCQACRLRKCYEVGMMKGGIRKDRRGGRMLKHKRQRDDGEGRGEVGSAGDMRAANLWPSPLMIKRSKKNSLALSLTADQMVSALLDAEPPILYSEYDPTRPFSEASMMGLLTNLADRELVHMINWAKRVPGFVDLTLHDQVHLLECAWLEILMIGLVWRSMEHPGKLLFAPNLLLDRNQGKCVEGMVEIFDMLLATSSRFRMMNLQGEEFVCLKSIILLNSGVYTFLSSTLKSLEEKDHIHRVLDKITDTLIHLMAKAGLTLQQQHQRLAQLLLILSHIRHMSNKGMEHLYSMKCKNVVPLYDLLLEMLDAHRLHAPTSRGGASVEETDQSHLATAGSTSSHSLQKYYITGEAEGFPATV
# Androgen receptor = biological target: T2, Androgen receptor (Homo sapiens, UniProt P10275); assay: Inhibition of AR transcriptional activity in human ARR2PB-eGFP expressing LNCaP cells after 3 days by fluorescence assay; assay type: cell-based
# T2 sequence (P10275 whole entry): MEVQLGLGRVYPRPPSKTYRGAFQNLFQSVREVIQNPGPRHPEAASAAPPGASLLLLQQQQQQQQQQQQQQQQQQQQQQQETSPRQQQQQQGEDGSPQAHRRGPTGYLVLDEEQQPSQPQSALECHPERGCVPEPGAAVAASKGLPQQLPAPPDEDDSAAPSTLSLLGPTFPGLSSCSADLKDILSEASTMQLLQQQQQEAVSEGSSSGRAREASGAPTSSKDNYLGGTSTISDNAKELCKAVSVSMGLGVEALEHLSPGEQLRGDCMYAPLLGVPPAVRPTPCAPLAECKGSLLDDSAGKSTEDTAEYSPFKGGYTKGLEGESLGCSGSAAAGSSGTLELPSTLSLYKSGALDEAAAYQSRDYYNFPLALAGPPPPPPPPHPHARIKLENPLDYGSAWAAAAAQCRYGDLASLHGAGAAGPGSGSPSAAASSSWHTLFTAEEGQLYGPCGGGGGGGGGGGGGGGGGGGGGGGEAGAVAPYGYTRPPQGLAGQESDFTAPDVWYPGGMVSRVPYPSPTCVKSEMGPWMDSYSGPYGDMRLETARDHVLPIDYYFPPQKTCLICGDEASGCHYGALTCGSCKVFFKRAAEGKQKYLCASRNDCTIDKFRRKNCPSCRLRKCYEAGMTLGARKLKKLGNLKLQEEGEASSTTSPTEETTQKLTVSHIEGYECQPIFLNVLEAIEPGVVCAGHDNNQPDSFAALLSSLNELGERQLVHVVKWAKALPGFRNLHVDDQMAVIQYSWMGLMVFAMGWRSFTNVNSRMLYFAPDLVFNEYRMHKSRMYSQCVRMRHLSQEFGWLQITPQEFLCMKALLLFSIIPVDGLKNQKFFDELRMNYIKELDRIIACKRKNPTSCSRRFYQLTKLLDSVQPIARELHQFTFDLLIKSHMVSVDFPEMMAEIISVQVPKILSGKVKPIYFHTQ
# Androgen receptor/PELP1 = Androgen receptor/PELP1 (Homo sapiens, UniProt P10275+Q8IZL8); assay: Inhibition of full length AR/PELP1 (unknown origin) interaction expressed in human LNCaP cells preincubated for 2 hrs followed by DHT addition measured after 24 hrs by Western blot analysis; assay type: cell-based
# Estrogen receptor [2] = biological target: T1, Estrogen receptor; assay: Displacement of fluorescein-labeled PGC1alpha peptide from human GST-tagged ERalpha LBD after 2 hrs in presence of estradiol-beta by TR-FRET assay
# [3] = biological target: T3, Peroxisome proliferator-activated receptor gamma (Homo sapiens, UniProt P37231); assay: Displacement of 5-FAM-labeled NBM131 from human PPARgamma ligand binding domain expressed in human HepG2 cells by fluorescence polarization assay
# T3 sequence (P37231 whole entry): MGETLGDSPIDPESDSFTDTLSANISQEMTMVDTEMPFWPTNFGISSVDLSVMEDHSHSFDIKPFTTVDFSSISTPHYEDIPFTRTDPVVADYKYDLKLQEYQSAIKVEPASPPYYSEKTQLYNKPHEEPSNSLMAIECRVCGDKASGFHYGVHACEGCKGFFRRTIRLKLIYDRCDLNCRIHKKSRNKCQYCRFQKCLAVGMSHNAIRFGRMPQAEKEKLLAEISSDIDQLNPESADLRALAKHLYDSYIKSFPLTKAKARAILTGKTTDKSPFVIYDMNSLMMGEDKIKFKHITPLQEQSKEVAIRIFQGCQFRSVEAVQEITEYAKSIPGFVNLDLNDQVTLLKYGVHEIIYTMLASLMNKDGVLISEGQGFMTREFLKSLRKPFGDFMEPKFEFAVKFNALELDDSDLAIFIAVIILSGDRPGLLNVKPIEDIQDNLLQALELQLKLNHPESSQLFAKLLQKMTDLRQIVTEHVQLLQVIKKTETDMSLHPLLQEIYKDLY
# [4] = biological target: T4, Peroxisome proliferator-activated receptor alpha (Homo sapiens, UniProt Q07869); assay: Displacement of 5-FAM-labeled NBM131 from human PPARalpha ligand binding domain expressed in human HepG2 cells by fluorescence polarization assay
# T4 sequence (Q07869 whole entry): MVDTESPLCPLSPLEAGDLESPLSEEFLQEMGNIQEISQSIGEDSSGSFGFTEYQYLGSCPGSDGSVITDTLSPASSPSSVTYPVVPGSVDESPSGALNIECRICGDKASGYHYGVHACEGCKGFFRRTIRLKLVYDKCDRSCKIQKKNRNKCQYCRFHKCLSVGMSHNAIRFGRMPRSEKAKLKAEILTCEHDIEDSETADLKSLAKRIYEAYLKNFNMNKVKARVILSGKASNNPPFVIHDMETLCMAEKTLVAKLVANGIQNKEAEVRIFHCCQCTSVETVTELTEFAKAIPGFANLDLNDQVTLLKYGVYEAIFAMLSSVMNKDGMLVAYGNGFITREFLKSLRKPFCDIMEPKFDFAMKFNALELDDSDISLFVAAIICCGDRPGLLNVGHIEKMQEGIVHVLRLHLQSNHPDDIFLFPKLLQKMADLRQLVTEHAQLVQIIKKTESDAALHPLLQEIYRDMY
# [5] = biological target: T5, Retinoic acid receptor RXR-alpha (Homo sapiens, UniProt P19793)
# T5 sequence (P19793 whole entry): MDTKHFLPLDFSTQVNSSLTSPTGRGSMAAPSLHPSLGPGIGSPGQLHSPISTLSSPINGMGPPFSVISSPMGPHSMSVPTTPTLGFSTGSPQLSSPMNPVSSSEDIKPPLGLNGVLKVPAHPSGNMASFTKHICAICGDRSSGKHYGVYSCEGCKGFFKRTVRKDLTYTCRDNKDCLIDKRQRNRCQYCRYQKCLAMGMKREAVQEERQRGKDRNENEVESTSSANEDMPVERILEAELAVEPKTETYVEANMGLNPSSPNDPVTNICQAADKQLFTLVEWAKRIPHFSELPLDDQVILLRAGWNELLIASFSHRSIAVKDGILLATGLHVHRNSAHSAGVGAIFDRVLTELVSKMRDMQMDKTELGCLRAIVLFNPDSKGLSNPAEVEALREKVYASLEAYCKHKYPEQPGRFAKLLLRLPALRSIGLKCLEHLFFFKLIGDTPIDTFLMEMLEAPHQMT
# Description: Binding affinity to human GST-tagged RXRalpha ligand binding domain (223 to 462 residues) expressed in Escherichia coli BL21 assessed as inhibition of 9-cis-RA-induced coactivator recruitment by TR-FRET assay
# Estrogen receptor [6] = biological target: T1, Estrogen receptor; assay: Displacement of europium-labeled SRC1 peptide from full length human recombinant ERalpha expressed in baculovirus expression system after 1.5 hrs in presence of estradiol-beta by TR-FRET assay
# Sequence of Androgen receptor/PELP1 (Q8IZL8 whole entry, one chain of several, the tested form may be a part): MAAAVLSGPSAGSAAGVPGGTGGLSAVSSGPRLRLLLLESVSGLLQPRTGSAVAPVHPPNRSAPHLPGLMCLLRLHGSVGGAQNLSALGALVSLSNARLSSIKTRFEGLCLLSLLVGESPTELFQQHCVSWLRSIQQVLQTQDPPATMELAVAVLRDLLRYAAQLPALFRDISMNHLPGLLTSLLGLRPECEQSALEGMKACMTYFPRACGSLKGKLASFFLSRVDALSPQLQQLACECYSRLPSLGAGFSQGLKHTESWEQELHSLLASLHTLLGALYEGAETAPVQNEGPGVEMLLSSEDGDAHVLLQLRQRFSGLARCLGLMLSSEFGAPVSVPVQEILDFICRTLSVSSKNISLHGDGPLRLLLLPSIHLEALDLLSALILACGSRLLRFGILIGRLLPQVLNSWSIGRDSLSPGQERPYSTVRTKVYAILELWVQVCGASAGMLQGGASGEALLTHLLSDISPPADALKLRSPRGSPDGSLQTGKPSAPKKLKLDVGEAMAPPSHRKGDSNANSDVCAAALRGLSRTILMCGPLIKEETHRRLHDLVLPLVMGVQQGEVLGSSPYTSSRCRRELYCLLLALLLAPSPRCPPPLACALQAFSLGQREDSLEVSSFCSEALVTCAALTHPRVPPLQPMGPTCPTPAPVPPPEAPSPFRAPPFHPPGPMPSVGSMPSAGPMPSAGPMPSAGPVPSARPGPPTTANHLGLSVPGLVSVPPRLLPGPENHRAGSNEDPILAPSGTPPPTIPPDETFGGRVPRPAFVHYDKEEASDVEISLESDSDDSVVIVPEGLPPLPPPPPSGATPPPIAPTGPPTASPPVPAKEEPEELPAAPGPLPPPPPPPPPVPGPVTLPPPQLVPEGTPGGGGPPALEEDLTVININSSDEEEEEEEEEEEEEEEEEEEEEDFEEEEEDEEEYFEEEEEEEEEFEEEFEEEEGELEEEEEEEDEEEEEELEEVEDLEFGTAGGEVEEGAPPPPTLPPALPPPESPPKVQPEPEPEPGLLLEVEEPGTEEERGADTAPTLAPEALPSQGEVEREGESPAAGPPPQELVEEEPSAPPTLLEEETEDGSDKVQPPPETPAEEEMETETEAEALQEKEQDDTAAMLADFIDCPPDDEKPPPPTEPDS
smiles,measurement,setting,value
O=C(CCCCn1c(=S)[nH]c2ccccc2c1=O)N1CCN(c2ccc(C(F)(F)F)cc2)CC1,IC50,Estrogen receptor [1],2300 nM
c1ccc2c(c1)CC(c1c[nH]c3ccccc13)N2 (stereo not given),IC50,Androgen receptor,310 nM
COC(=O)c1ccc(NC(=O)c2ccc([N+](=O)[O-])c(OCC(C)C)c2)c(OCC(C)C)c1,IC50,Androgen receptor/PELP1,40 nM
CCOc1cc(Br)cc(CNNC(=O)c2ccc3c(c2)OCCO3)c1O,IC50,Estrogen receptor [2],2980 nM
CC(C)NC(=O)CSc1nc2ccc(NC(=O)CSc3cccc(Cl)c3)cc2s1,IC50,Estrogen receptor [1],6300 nM
CC(C)C[C@H](NC(=O)[C@H](Cc1ccccc1)NC(=O)[C@H](CCC(N)=O)NC(=O)[C@@H](NC(=O)[C@H](CC(C)C)NC(=O)[C@H](CC(C)C)NC(=O)[C@@H]1CCCN1C(=O)[C@H](Cc1cnc[nH]1)NC(=O)[C@H](CC(C)C)NC(=O)[C@H](CCC(N)=O)NC(=O)[C@@H](NC(=O)[C@@H]1CCCN1C(=O)[C@@H]1CCCN1C(=O)[C@@H](NC(=O)[C@@H](NC(=O)[C@H](C)N)[C@@H](C)O)[C@@H](C)O)[C@@H](C)O)[C@@H](C)O)C(=O)N[C@@H](CCCNC(=N)N)C(=O)N[C@H](C(=O)N[C@@H](CC(=O)O)C(=O)O)[C@@H](C)O (H-ATTPPTQLHPLLTQFLRTD-OH),Kd,[3],80 nM
same,Kd,[4],80 nM
CC1=C(CCc2nnn[nH]2)c2cc(F)ccc2/C1=C\c1ccc(C(C)C)cc1,IC50,[5],10000 nM
O=C1NN(c2ccc(Cl)c(Cl)c2)C(=O)C1Cc1c[nH]c2ccccc12 (stereo not given),IC50,Estrogen receptor [2],2460 nM
CC[C@H](C)[C@@H]1NC(=O)[C@H](NC(=O)[C@@H](N)CCCCN)CSSC[C@@H](C(=O)N[C@@H](CCCNC(=N)N)C(=O)N[C@@H](CC(C)C)C(=O)N[C@@H](CC(C)C)C(=O)N[C@@H](CCC(N)=O)C(=O)O)NC(=O)[C@H](CC(C)C)NC1=O,Ki,Estrogen receptor [6],25 nM
